In patent publication US11945799B2, “4-ethynylpyridine derivatives useful as GCN2 inhibitors” (IP2IPO INNOVATIONS LIMITED, priority 2020, dated 2024):
Read-outs that look alike come from different tables or passages of the source.

Columns and labels:
[1] = Kinetic solubility in PBS buffer pH 7.4; type: physicochemical; details: aqueous buffer, kinetic from dmso stock; PBS buffer pH 7.4, 90 minutes at room temperature, from 10 mM DMSO stock
Description: The kinetic solubility assay investigates a solubility based on the amount of material which remains in solution after a precipitation process. […] Assay is performed using Multiscreen Vacuum Manifold. A buffer of interest (in standard protocol PBS buffer at pH=7.4 is used) is spiked with stock solution and incubated for 90 minutes at room temperature. After that time solution/suspension is filtrated. The concentration of each compound is determined on the base of prepared calibration curve using UV-VIS spectrophotometry method. The assay is made in triplicate.
Buffer of interest: 0.24 g of KH2PO4, 1.44 g of Na2HPO4, 0.2 g of KCl and 8 g NaCl and dissolve in 1 L distilled H2O; adjust pH to appropriate value (pH 7.4). 190 μl of buffer of interest was dispensed into the wells of a 96 well filter plate, followed by 10 μl of compound (10 mM stock solution in DMSO). The plate was shaken gently at room temperature for 90 minutes at 500 rpm using a BioSan, Plate Shaker-Thermostat, PST-60 HL-4. After 90 minutes, the plate was filtered using a vacuum manifold and vacuum pump. 100 μl of each filtrate and 100 μl acetonitrile was transferred to a 96 well UV-visible light transparent plate and the UV-visible absorption spectrum was measured using a Biotek Synergy 2 multiplate reader from 250-500 nm, interval range 10 nm. The amount of test compound was calculated using a calibration curve prepared by serial dilution of compounds in equivalent amounts of DMSO and acetonitrile.

[2] = target: T1, full-length human GCN2 enzyme (Homo sapiens, UniProt Q9P2K8); assay: GCN2 enzyme inhibition, LanthaScreen TR-FRET Kinase Activity assay (10 μM and 300 μM ATP); type: biochemical; details: mean of replicate assays
T1 construct: purchased Carna Bioscience
Description: Biological and Pharmacokinetic Testing (a) GCN2 Enzyme Inhibition (10 μM and 300 μM Assays) Assay Protocol Overview:
The inhibitory activity of the Example compounds towards GCN2 enzyme was measured according to the description below, using a LanthaScreen TR-FRET (Time Resolved Fluorescence Resonance Energy Transfer) Kinase Activity assay distributed by ThermoFisher Scientific.
The full-length human GCN2 enzyme (UniProt accession number Q9P2K8) was used for all experiments (Carna Bioscience). The TR-FRET pair was composed of GFP-eIF2α and LanthaScreen Terbium-labeled anti-peIF2α (pSer52) Antibody.
Each example compound was dissolved in DMSO (0.15 mM) and dispensed in a 384-well plate by a D300 dispenser (Tecan) to a final concentration range 3000-0.13 nM using the logarithmic dilution mode in 2 replicates. Full inhibition (3000 nM commercial reference inhibitor) and DMSO vehicle control wells were also included on the same plate. All volumes were normalized to the final DMSO concentration of 2% of the reaction volume. Next, 5 μL of H2O was added to each well of the plate.
The enzyme mixture was prepared to obtain the following concentrations: • GCN2—30 nM • unloaded tRNA—0.3 nM • HEPES (pH=7.0)—100 mM • MgCl2—20 mM; MnCl2—10 mM
The mixture was applied by adding 5 μL to each well of the plate. The enzyme and the tested compound were then incubated at room temperature for 20 min while shaking at 450 rpm.
The substrate mixture was prepared to obtain the following concentrations: • GFP-eIF2α—240 nM • ATP—900 μM or 30 μM • HEPES (pH=7.0)—50 mM • MgCl2—10 mM • MnCl2—5 mM.
The mixture was applied by adding 5 μL to each well of the plate. Thus, the final concentrations of the 15 μL reaction mixture were as follows: • GCN2—10 nM • unloaded tRNA—0.1 nM • GFP-eIF2α—80 nM • ATP—300 μM or 10 μM • HEPES (1 M, pH=7.0)—50 mM • MgCl2—10 mM • MnCl2—5 mM.
The reaction was allowed to proceed at room temperature for 30 min while shaking at 450 rpm.
The antibody mixture was prepared to obtain the following concentrations: • Na2EDTA·2H2O—40 mM, in TR-FRET Dilution Buffer (Life technologies) • Tb—anti-peIF2a antibodies—4 nM.
The mixture was applied by adding 15 μL to each well. The plate was then incubated at room temperature for 60 min while shaking at 450 rpm and then read using Tecan Spark reader using specific TR-FRET filters.
The analysis of the GFP/Tb fluorescence results was conducted with GraphPad Prism to determine IC50 for each of the example compounds using 4-parameter model: log(inhibitor) vs. response-variable slope. IC50 and K, values were calculated in the usual way. The assay was carried out between 1 and 15 times. The results in the table below are the mean results from replicate assays for the compound in question, where applicable.

[3] = read-out: GCN2 IC50 (nM) 10 uM ATP, 10 uM ATP
[4] = read-out: GCN2 IC50 (nM) 300 uM ATP, 300 uM ATP
[5] = read-out: GCN2 Ki (nM) 10 uM ATP, 10 uM ATP
[6] = read-out: GCN2 Ki (nM) 300 uM ATP, 300 uM ATP

T1 sequence (Q9P2K8 whole entry): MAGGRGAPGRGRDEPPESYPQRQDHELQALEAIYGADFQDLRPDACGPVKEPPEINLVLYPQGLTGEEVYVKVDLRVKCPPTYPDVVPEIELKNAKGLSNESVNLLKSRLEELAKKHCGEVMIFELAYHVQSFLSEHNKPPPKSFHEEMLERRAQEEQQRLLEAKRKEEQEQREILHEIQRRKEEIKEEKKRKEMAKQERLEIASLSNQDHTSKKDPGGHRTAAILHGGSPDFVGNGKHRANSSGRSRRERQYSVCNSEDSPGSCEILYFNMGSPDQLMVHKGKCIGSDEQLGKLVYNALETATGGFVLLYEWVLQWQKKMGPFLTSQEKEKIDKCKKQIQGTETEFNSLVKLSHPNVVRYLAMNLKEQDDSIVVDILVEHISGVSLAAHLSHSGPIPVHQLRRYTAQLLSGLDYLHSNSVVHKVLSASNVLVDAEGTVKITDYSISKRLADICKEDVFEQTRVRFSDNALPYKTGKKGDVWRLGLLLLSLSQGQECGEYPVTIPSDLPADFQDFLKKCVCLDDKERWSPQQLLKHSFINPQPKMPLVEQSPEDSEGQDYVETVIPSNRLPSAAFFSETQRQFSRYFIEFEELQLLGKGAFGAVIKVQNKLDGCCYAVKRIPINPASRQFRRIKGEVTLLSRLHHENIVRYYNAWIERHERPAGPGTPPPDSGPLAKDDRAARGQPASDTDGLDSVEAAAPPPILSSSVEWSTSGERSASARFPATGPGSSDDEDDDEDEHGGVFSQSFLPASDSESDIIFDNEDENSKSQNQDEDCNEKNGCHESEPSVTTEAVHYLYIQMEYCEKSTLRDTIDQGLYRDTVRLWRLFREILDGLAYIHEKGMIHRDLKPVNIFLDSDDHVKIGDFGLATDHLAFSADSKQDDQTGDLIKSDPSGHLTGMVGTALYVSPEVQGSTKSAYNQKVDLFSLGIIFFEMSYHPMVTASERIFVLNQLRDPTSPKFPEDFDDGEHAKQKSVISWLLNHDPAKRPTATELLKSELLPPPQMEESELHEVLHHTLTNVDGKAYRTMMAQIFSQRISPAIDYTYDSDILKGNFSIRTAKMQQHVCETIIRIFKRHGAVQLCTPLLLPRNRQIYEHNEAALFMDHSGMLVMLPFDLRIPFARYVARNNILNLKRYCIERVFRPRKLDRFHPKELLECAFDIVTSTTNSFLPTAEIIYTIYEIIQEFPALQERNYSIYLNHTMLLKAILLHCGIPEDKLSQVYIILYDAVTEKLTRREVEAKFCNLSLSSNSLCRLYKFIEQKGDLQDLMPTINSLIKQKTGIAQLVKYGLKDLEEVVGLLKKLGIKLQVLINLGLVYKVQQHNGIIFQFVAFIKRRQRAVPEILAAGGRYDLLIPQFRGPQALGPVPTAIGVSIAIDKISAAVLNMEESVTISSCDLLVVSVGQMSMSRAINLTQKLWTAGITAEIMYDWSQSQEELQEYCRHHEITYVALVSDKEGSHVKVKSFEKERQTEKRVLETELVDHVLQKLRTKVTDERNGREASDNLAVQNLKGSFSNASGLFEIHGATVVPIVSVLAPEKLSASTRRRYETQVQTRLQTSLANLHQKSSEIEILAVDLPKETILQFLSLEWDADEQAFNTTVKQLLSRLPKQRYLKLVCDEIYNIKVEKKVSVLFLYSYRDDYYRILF

Row | Compound | solubility kinetic at 90 min [1] | IC50 [2, 3] | IC50 [2, 4] | Ki [2, 5] | Ki [2, 6]
1 | COc1ncc(Cl)cc1S(=O)(=O)Nc1nccc(C#Cc2cnc(N)nc2)c1Cl [Example 2, N-{4-[2-(2-aminopyrimidin-5-yl)ethynyl]-3-chloropyridin-2-yl}-5-chloro-2-methoxypyridine-3-sulfonamide] | 226 µg/mL | 8.1 nM | 79 nM | 2.6 nM | 1.2 nM
2 | COc1ncc(Cl)cc1S(=O)(=O)Nc1nccc(C#Cc2cnc(N)c3ncccc23)c1F [Example 4, N-{4-[2-(8-amino-1,7-naphthyridin-5-yl)ethynyl]-3-fluoropyridin-2-yl}-5-chloro-2-methoxypyridine-3-sulfonamide] | 29.5 µg/mL | 2.9 nM | 17.6 nM | 0.9 nM | 0.3 nM
3 | COc1ncc(Cl)cc1S(=O)(=O)Nc1nccc(C#Cc2cncc3nccnc23)c1F [Example 5, 5-chloro-N-{4-[2-(pyrido[3,4-b]pyrazin-8-yl)ethynyl]-3-fluoropyridin-2-yl}-2-methoxypyridine-3-sulfonamide] | 223 µg/mL | 7.8 nM | 186 nM | 2.5 nM | 2.8 nM
4 | COc1ncc(Cl)cc1S(=O)(=O)Nc1nccc(C#Cc2cncc3cccnc23)c1F [Example 6, 5-chloro-N-{4-[2-(1,6-naphthyridin-8-yl)ethynyl]-3-fluoropyridin-2-yl}-2-methoxypyridine-3-sulfonamide] | 40.3 µg/mL | 6.7 nM | 49.3 nM | 2.1 nM | 0.8 nM
5 | COc1ncc(Cl)cc1S(=O)(=O)Nc1nccc(C#Cc2cnn3c(N)ccnc23)c1F [Example 7, N-{4-[2-(7-aminopyrazolo[1,5-a]pyrimidin-3-yl)ethynyl]-3-fluoropyridin-2-yl}-5-chloro-2-methoxypyridine-3-sulfonamide] | 216 µg/mL | 7.9 nM | 105 nM | 2.5 nM | 1.6 nM
6 | COc1ncc(Cl)cc1S(=O)(=O)Nc1nccc(C#Cc2cnc3c(N)cccn23)c1F [Example 8, N-{4-[2-(8-aminoimidazo[1,2-a]pyridin-3-yl)ethynyl]-3-fluoropyridin-2-yl}-5-chloro-2-methoxypyridine-3-sulfonamide] | 214 µg/mL | 9.9 nM | 335 nM | 3.1 nM | 5.1 nM
7 | COc1ncc(Cl)cc1S(=O)(=O)Nc1nccc(C#Cc2cnc3ccccc3n2)c1F [Example 9, 5-chloro N-{4-[2-(quinoxalin-2-yl)ethynyl]-3-fluoropyridin-2-yl}-2-methoxypyridine-3-sulfonamide] | 134 µg/mL | 7.5 nM | 112 nM | 2.4 nM | 1.7 nM
8 | COc1ncc(Cl)cc1S(=O)(=O)Nc1ncc(F)c(C#Cc2cnc(N)nc2)c1F [Example 10, N-{4-[2-(2-aminopyrimidin-5-yl)ethynyl]-3,5-difluoropyridin-2-yl}-5-chloro-2-methoxypyridine-3-sulfonamide] | 138 µg/mL | – | – | – | –
9 | COc1ncc(Cl)cc1S(=O)(=O)Nc1nccc(C#Cc2cnc3c(N)nccn23)c1F [Example 11, N-{4-[2-(8-aminoimidazo[1,2-a]pyrazin-3-yl)ethynyl]-3-fluoropyridin-2-yl}-5-chloro-2-methoxypyridine-3-sulfonamide] | 216 µg/mL | 2.3 nM | 71.8 nM | 0.7 nM | 1.1 nM
10 | COc1ccc(Cl)cc1S(=O)(=O)Nc1nccc(C#Cc2cnc3[nH]ncc3c2)c1F [Example 12, 5-chloro-N-[3-fluoro-4-(2-{1H-pyrazolo[3,4-b]pyridin-5-yl}ethynyl)pyridin-2-yl]-2-methoxybenzene-1-sulfonamide] | 161 µg/mL | – | 257 nM | – | 3.9 nM
11 | COc1nc(N)ncc1C#Cc1ccnc(NS(=O)(=O)c2cc(Cl)cnc2OC)c1F [Example 35, N-{4-[2-(2-amino-4-methoxypyrimidin-5-yl)ethynyl]-3-fluoropyridin-2-yl}-5-chloro-2-methoxypyridine-3-sulfonamide] | – | – | 328 nM | – | 5 nM
